Reference: patent US20140094465A1, “Compounds as S-Nitrosoglutathione Reductase Inhibitors” (N30 PHARMACEUTICALS, INC., priority 2011, published 2014)

How the values were obtained:
[1] = test system: cigarette smoke-induced COPD; assay: Acute (4 day) cigarette smoke exposure COPD model; format: in vivo, mouse; conditions: acute 4 day smoke model
Method: The efficacy of GSNOR inhibitors was assessed in a mouse model of chronic obstructive pulmonary disease (COPD) induced by short duration (4 days or 11 days) of exposure to cigarette smoke. Infiltration of inflammatory cells into the bronchoalveolar lavage fluid (BALF) and BALF levels of chemokines involved in inflammation and tissue turnover/repair were measured to assess the influences of GSNOR inhibitors on some of the early events associated with the initiation and progression of COPD.
Efficacy of GSNOR inhibitors against COPD was explored using acute (4 day) and subchronic (11 day) models of cigarette smoke-induced COPD in mice. […] In animal models, changes in lung pathology are only evident after extended (several months) duration of exposure to cigarette smoke, thus making chronic models prohibitive as effective screening tools. More recently, models exploring inflammatory responses after short duration (2 weeks or less) of smoke exposure in mice have been utilized as tools for screening efficacy and mechanisms of action of novel therapeutics against COPD. The key roles of inflammation in the initiation and progression of COPD, make these short duration models relevant for initial tests of efficacy of novel therapeutics.
Female C57Bl/6 mice (N=8 per group) were exposed to cigarette smoke using a whole body exposure chamber. Mice were exposed daily for 4 consecutive days to 4 cycles of smoke from 6 sequential cigarettes (Kentucky 3R4F without filter) with a 30 minute smoke free interval between cycles. GSNOR inhibitors were administered daily via oral dosing at 10 mg/kg/day for 7 days starting 2 days prior to smoke exposure and continuing 1 day post-exposure. The effects of GSNOR inhibitors were assessed by quantitating the numbers of total cells, leukocytes, and leukocytes differentials in the BALF via light microscopy and the levels of BALF chemokines via ELISA at approximately 24 h after the last smoke exposure. The effect of GSNOR inhibitors were compared to vehicle treated controls. The PDE4 inhibitor, roflumilast, was used as the positive control for the study. A group of naïve mice (N=8) was exposed to air and used as a negative control for the study.

[2] = test system: cigarette smoke-induced COPD; assay: Subchronic (11 day) cigarette smoke exposure COPD model; format: in vivo, mouse; conditions: subchronic 11 day model
Method: Infiltration of inflammatory cells into the bronchoalveolar lavage fluid (BALF) and BALF levels of chemokines involved in inflammation and tissue turnover/repair were measured to assess the influences of GSNOR inhibitors on some of the early events associated with the initiation and progression of COPD. […] In animal models, changes in lung pathology are only evident after extended (several months) duration of exposure to cigarette smoke, thus making chronic models prohibitive as effective screening tools. […] The key roles of inflammation in the initiation and progression of COPD, make these short duration models relevant for initial tests of efficacy of novel therapeutics. Female C57Bl/6 mice (N=10 per group) were exposed to cigarette smoke generated from Marlboro 100 cigarettes without filters. Exposure times were 25 min. on study day 1, 35 min. on study day 2, and 45 min. on study days 3 to 11. GSNOR inhibitors were administered one hour prior to smoke exposure on each day. GSNOR inhibitors were dosed orally at 1 to 10 mg/kg/day for 11 days. […] The effect of GSNOR inhibitors were compared to vehicle treated controls and expressed as percent inhibition of the cigarette smoke induced increases in BALF cell numbers. Roflumilast was used as the positive control for the study and was dosed at 5 mg/kg/day. A group of naïve mice (N=10) was exposed to air and dosed with vehicle as a negative control for the study.

SMILES	effects compared with roflumilast [1]	BALF chemokines ([1]; oral 10 mg/kg/day for 7 days)	inhibition of smoke-induced increase in eosinophils in BALF ([2]; oral 10 mg/kg/day for 11 days) [%]	inhibition of smoke-induced increase in lymphocytes in BALF ([2]; oral 10 mg/kg/day for 11 days) [%]	inhibition of smoke-induced increase in macrophages in BALF ([2]; oral 10 mg/kg/day for 11 days) [%]	inhibition of smoke-induced increase in neutrophils in BALF ([2]; oral 10 mg/kg/day for 11 days) [%]	inhibition of smoke-induced increase in total cells in BALF ([2]; oral 10 mg/kg/day for 11 days) [%]	inhibition of smoke-induced increase in lymphocytes in BAL ([2]; oral 1 mg/kg/day for 11 days) [%]	inhibition of smoke-induced increase in macrophages in BAL ([2]; oral 1 mg/kg/day for 11 days) [%]	inhibition of smoke-induced increase in neutrophils in BAL ([2]; oral 1 mg/kg/day for 11 days) [%]	inhibition of smoke-induced increase in total cells in BAL ([2]; oral 1 mg/kg/day for 11 days) [%]	effects compared with roflumilast ([2]; roflumilast 5 mg/kg/day)
O=c1c2ccc(O)cc2oc(C(F)(F)F)c1[C@H]1CC[C@H](C(=O)O)CC1 [IV-25]	comparable to or greater than those observed for roflumilast	restored BALF chemokines towards levels observed in naïve mice	57	24	28	25	26	–	–	–	–	–
O=C(O)c1ccc(-c2c(C(F)(F)F)oc3cc(O)ccc3c2=O)c(F)c1 [IV-38]	–	–	–	–	–	–	–	62	44	68	53	comparable to those of roflumilast
